Legend:
Test in all cases: Quantitative competitive binding assay (KINOMEscan)
Details in all cases: for remaining binding at 0.05 µM: read-out: Percent control (50 nM); for remaining binding at 0.2 µM: read-out: Percent control (200 nM); for remaining binding at 1 µM: read-out: Percent control (1000 nM); for remaining binding at 10 µM: read-out: Percent control (10 μM)
ASK2 (MAP3K6) = biological target: T1, ASK2 (MAP3K6) (Homo sapiens, UniProt O95382)
T1 construct: purchased KINOMEscan (DiscoveRx), San Diego, CA
T1 sequence (O95382 1-1288): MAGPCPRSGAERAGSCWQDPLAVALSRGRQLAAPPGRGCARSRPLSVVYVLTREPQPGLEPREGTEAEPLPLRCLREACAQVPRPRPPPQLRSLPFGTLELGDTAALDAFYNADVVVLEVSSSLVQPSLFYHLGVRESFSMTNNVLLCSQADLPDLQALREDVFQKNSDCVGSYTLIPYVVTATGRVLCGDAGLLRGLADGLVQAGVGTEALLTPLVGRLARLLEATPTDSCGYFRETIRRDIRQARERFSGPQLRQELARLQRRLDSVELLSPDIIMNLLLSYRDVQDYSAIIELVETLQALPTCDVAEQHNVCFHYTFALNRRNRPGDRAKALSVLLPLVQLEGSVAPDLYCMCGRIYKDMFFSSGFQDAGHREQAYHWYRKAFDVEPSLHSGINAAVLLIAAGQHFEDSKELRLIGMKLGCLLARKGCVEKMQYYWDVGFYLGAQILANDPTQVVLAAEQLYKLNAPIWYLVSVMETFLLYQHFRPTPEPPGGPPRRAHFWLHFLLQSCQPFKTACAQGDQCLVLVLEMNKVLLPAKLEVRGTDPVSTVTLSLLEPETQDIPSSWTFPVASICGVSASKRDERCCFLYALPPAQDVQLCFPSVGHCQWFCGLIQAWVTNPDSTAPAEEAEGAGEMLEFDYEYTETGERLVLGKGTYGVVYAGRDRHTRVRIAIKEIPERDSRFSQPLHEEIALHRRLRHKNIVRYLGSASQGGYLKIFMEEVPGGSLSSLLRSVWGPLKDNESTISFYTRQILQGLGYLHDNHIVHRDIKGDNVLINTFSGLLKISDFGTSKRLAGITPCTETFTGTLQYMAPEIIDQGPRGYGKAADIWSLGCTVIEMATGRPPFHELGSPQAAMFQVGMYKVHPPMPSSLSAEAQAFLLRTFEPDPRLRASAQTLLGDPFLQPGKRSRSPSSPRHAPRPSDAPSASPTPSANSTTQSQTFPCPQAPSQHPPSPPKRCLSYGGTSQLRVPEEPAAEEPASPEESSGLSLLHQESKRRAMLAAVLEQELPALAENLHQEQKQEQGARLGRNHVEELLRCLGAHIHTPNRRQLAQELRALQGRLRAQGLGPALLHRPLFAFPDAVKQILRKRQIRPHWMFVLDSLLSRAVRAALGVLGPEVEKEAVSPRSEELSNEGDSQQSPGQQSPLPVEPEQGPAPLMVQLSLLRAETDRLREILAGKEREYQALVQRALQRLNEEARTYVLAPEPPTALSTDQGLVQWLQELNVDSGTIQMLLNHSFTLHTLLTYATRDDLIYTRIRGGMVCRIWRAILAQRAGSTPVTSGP

MAP4K3 = biological target: T2, MAP4K3 (Homo sapiens, UniProt Q8IVH8)
T2 construct: purchased KINOMEscan (DiscoveRx), San Diego, CA
T2 sequence (Q8IVH8 1-894): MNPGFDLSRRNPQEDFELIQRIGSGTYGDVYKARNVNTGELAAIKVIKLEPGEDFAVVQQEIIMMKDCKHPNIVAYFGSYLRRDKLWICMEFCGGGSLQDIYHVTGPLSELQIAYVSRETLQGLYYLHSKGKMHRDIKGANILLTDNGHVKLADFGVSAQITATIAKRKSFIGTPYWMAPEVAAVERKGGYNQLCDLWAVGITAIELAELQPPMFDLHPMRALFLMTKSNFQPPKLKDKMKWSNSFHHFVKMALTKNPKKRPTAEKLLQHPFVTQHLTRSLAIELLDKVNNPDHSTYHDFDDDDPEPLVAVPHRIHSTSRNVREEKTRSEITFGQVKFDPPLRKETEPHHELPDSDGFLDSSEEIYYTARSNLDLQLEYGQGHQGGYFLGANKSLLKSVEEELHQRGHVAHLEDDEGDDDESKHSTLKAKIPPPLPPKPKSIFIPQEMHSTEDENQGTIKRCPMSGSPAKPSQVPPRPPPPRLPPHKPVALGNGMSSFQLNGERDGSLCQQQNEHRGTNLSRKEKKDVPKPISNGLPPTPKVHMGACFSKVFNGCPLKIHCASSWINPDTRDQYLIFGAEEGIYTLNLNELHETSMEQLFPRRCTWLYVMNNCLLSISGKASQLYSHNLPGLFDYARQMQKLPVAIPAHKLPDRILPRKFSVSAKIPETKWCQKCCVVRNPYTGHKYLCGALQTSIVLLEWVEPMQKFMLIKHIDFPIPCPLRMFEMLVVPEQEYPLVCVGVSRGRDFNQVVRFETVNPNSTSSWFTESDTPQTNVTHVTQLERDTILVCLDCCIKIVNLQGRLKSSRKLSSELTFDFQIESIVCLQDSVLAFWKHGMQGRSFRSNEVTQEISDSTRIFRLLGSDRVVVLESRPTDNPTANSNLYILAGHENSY

MEK3 (MAP2K3) = biological target: T3, MEK3 (MAP2K3) (Homo sapiens, UniProt P46734)
T3 construct: purchased KINOMEscan (DiscoveRx), San Diego, CA

STK39 = biological target: T4, STK39 (Homo sapiens, UniProt Q9UEW8)
T4 construct: purchased KINOMEscan (DiscoveRx), San Diego, CA

TAOK3 = biological target: T5, TAOK3 (Homo sapiens, UniProt Q9H2K8)
T5 construct: purchased KINOMEscan (DiscoveRx), San Diego, CA

TNIK = biological target: T6, TNIK (Homo sapiens, UniProt Q9UKE5)
T6 construct: purchased KINOMEscan (DiscoveRx), San Diego, CA
T6 sequence (Q9UKE5 whole entry): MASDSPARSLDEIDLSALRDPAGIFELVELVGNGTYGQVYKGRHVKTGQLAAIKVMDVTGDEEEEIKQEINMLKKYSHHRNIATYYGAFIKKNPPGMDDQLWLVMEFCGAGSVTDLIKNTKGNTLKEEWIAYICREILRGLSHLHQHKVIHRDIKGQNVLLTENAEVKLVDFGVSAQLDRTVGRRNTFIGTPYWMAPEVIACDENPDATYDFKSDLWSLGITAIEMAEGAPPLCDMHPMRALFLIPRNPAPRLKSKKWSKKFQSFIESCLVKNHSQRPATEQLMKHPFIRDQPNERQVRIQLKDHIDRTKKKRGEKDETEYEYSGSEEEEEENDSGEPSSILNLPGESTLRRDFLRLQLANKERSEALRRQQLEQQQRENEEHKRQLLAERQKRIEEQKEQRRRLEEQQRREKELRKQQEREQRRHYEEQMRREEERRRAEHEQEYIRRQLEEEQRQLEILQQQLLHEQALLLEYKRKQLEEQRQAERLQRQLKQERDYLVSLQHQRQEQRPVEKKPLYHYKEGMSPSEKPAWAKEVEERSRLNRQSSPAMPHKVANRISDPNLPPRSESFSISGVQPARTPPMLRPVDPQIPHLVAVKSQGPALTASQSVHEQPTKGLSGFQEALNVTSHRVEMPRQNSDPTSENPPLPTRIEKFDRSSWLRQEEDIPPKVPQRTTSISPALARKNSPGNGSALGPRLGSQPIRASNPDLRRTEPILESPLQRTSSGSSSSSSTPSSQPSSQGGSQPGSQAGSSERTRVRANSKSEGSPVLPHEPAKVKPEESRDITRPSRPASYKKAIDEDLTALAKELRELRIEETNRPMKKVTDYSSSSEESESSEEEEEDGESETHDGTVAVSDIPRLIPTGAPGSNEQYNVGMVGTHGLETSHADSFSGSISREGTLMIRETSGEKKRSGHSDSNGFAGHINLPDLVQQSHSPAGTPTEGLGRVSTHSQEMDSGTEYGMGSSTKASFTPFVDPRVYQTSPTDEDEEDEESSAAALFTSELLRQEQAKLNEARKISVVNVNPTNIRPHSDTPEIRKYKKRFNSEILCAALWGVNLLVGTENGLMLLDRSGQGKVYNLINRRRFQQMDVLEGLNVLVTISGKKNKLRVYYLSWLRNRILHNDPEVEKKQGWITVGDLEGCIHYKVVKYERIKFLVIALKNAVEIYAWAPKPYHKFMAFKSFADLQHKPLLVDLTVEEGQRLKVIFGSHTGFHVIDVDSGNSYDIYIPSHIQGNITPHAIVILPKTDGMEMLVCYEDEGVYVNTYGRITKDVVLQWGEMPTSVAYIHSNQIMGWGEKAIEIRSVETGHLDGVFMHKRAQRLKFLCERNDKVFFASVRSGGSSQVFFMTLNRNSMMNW

T3 sequence (P46734 whole entry): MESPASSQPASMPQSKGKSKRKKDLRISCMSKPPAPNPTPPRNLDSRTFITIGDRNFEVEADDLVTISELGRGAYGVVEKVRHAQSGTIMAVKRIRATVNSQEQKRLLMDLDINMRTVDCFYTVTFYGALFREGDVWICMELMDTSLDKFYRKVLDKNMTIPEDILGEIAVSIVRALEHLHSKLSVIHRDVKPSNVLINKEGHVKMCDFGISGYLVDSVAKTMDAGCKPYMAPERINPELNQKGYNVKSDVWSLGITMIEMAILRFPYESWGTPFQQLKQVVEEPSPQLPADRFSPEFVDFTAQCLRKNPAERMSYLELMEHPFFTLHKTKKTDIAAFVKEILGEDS
T5 sequence (Q9H2K8 whole entry): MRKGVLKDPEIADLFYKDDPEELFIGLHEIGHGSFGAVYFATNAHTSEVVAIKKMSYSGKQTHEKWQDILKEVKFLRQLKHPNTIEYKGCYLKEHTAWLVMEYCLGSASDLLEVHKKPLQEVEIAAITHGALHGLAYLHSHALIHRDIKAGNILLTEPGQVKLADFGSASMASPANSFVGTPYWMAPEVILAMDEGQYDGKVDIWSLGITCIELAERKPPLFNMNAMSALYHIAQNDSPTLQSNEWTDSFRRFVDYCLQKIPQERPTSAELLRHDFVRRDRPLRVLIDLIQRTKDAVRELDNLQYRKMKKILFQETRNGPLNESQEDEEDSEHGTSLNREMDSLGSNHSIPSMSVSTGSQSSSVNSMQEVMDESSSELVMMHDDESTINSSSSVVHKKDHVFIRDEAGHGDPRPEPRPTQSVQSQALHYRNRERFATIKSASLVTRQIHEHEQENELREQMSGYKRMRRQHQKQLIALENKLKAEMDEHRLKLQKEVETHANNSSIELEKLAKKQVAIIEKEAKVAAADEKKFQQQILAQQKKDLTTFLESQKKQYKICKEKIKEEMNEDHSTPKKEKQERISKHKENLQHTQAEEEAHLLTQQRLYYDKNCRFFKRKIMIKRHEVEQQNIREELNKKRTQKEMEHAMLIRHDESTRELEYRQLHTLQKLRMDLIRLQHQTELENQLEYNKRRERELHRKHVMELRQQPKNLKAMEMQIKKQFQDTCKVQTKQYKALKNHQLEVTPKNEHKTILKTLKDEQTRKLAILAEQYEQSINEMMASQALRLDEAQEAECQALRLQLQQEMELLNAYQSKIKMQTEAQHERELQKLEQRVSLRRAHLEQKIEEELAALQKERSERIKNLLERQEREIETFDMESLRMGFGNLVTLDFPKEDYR

Compound	remaining binding at 0.05 µM (ASK2 (MAP3K6)) [%]	remaining binding at 0.2 µM (ASK2 (MAP3K6)) [%]	remaining binding at 1 µM (ASK2 (MAP3K6)) [%]	remaining binding at 10 µM (ASK2 (MAP3K6)) [%]	remaining binding at 0.05 µM (MAP4K3) [%]	remaining binding at 0.2 µM (MAP4K3) [%]	remaining binding at 1 µM (MAP4K3) [%]	remaining binding at 10 µM (MAP4K3) [%]	remaining binding at 0.05 µM (MEK3 (MAP2K3)) [%]	remaining binding at 0.2 µM (MEK3 (MAP2K3)) [%]	remaining binding at 1 µM (MEK3 (MAP2K3)) [%]	remaining binding at 10 µM (MEK3 (MAP2K3)) [%]	remaining binding at 0.05 µM (STK39) [%]	remaining binding at 0.2 µM (STK39) [%]	remaining binding at 1 µM (STK39) [%]	remaining binding at 10 µM (STK39) [%]	remaining binding at 0.05 µM (TAOK3) [%]	remaining binding at 0.2 µM (TAOK3) [%]	remaining binding at 1 µM (TAOK3) [%]	remaining binding at 10 µM (TAOK3) [%]	also measured
CCCS(=O)(=O)Nc1ccc(F)c(C(=O)c2c[nH]c3ncc(Cl)cc23)c1F [PLX4720]	94	100	100	100	100	95	90	56	100	100	100	64	100	100	100	59	100	98	96	58	remaining binding at 0.05 µM (TNIK): 97%; remaining binding at 0.2 µM (TNIK): 89%; remaining binding at 1 µM (TNIK): 79%; remaining binding at 10 µM (TNIK): 24%
CCCS(=O)(=O)Nc1ccc(F)c(C(=O)c2c[nH]c3ncc(-c4ccc(Cl)cc4)cc23)c1F [vemurafenib]	94	98	100	74	80	90	82	24	100	96	98	54	100	100	97	66	92	98	92	80	IC50 (TAOK3; estimated Kd, averaged pointwise estimates, transformed Hill equation, read-out: Calculated estimate of IC50): 15.5 µM; remaining binding at 0.05 µM (TNIK): 95%; remaining binding at 0.2 µM (TNIK): 94%; remaining binding at 1 µM (TNIK): 66%; remaining binding at 10 µM (TNIK): 11%
